# Assay results from ChEMBL document CHEMBL1221378, “Synthesis of cholestane glycosides bearing OSW-1 disaccharide or its 1-->4-linked analogue and their antitumor activities” (Bioorg Med Chem Lett, 2010).
# Columns and labels:
# Assay type in all cases: functional, cell-based
# HCT-8 = assay: Cytotoxicity against human HCT8 cells after 72 hrs by MTT assay; conditions: HCT-8, 72 h
# A2780 = assay: Cytotoxicity against human A2780 cells after 72 hrs by MTT assay; conditions: A2780, 72 h
# BGC-823 = assay: Cytotoxicity against human BGC823 cells after 72 hrs by MTT assay; conditions: BGC-823, 72 h
# A549 = assay: Cytotoxicity against human A549 cells after 72 hrs by MTT assay; conditions: A549, 72 h
# Bel-7402 = assay: Cytotoxicity against human Bel7402 cells after 72 hrs by MTT assay; conditions: Bel-7402, 72 h
Compound,IC50 (HCT-8) [nM],IC50 (A2780) [nM],IC50 (BGC-823) [nM],IC50 (A549) [nM],IC50 (Bel-7402) [nM]
CC(=O)O[C@H]1C(=O)[C@@]2(C)[C@H]([C@H](OC(=O)c3ccccc3)[C@]3(O)C[C@H](OC(=O)[C@H](O)[C@@H](NC(=O)c4ccccc4)c4ccccc4)C(C)=C1C3(C)C)[C@]1(OC(C)=O)CO[C@@H]1C[C@@H]2O [PACLITAXEL],51,< 1,< 1,16,60
COc1ccc(C(=O)O[C@H]2[C@H](O[C@@H]3[C@@H](OC(C)=O)[C@H](O[C@H]4C[C@H]5[C@@H]6CC=C7C[C@@H](O)CC[C@]7(C)[C@H]6CC[C@]5(C)[C@H]4[C@H](C)C(=O)CC[C@@H](C)CO)OC[C@H]3O)OC[C@@H](O)[C@@H]2O)cc1,23,73,13,46,39
COc1ccc(C(=O)O[C@H]2[C@H](O[C@@H]3CO[C@@H](O[C@H]4C[C@H]5[C@@H]6CC=C7C[C@@H](O)CC[C@]7(C)[C@H]6CC[C@]5(C)[C@H]4[C@H](C)C(=O)CC[C@@H](C)CO)[C@H](OC(C)=O)[C@H]3O)OC[C@@H](O)[C@@H]2O)cc1,> 10000,> 10000,> 10000,> 10000,> 10000
COc1ccc(C(=O)O[C@H]2[C@H](O[C@@H]3CO[C@@H](O[C@@H](CC[C@@H](C)CO)[C@@H](C)[C@H]4[C@@H](O[C@@H]5OC[C@@H](O[C@@H]6OC[C@@H](O)[C@H](O)[C@H]6OC(=O)c6ccc(OC)cc6)[C@H](O)[C@H]5OC(C)=O)C[C@H]5[C@@H]6CC=C7C[C@@H](O)CC[C@]7(C)[C@H]6CC[C@]45C)[C@H](OC(C)=O)[C@H]3O)OC[C@@H](O)[C@@H]2O)cc1,> 10000,> 10000,> 10000,> 10000,> 10000
